Reference: patent publication US8633252B2, “Use of pterosin compounds for treating diabetes and obesity” (Taipei Medical University, priority 2009, dated 2014)

Legend:
db/db mice [1] = assay: HOMA-IR test in type II diabetic mice; format: in vivo; conditions: 100 mg/kg/day orally for 28 days
Description: HOMA-IR is expressed by an empirical mathematical formula based on fasting plasma glucose and fasting plasma insulin levels that was developed as a surrogate measurement of in vivo insulin sensitivity: HOMA value for insulin resistance: (HOMA-IR)=fasting insulin (μU/ml)×fasting glucose (mmol/l)/22.5. See, e.g., Biol. Pharm. Bull. 2007; 30:2196-2200.
In this study, the db/db mice (Jackson Laboratory) were orally administered with Compound 1 (100 mg/kg/day) for 28 days. Subsequently, normal mice, db/db-mice, and the Compound 1-treated db/db-mice were subjected to a HOMA-IR test, which was conducted based on a method as described in Biol. Pharm. Bull. 2007; 30:2196-2200. Briefly, mouse insulin enzyme immunoassay ELISA kit was used to measure the plasma insulin concentration. Insulin resistance was determined by the homeostasis model assessment (HOMA) method.

db/db mice [2] = assay: HbA1C (Haemoglobin A1C) test in type II diabetic mice; format: in vivo; conditions: 100 mg/kg/day orally for 28 days
Description: In the blood stream, glucose sticks to the haemoglobin to form a “glycosylated haemoglobin” molecule, called haemoglobin A1C or HbA1C. The more glucose in the blood, the more haemoglobin A1C or HbA1C will be present in the blood. The HbA1C test is currently one of the common ways to check if diabetes is under control. See, e.g. Diabetes Care. 2001; 24:465-471.
In this study, the db/db mice (Jackson Laboratory) were orally administered with Compound 1 (100 mg/kg/day) for 28 days. Subsequently, normal mice, db/db-mice, and the Compound 1-treated db/db-mice were subjected to a HbA1C test, which was conducted based on a method as described in Life Sci. 2005; 77:1391-403. Briefly, at the end of the experimental period, animals were sacrificed by exsanguinations under diethyl ether anesthesia. Plasma was separated from the blood by centrifugation. HbA1c in blood was measured by the standardized method.

[3] = test system: Streptozotocin (STZ)-induced diabetic mice; assay: Glucose tolerance assay in type I diabetic mice; format: in vivo
Description: Streptozotocin (STZ)-induced diabetic mice were administered orally with Compound 1 (50 mg/kg). STZ-induced diabetic mice are a well-known mouse model of type I diabetes (insulin dependent). See, e.g., Liu I M, et al., Neuroscience Letters 2001; 307: 81-84.
Two hours later, normal mice, STZ-induced diabetic mice, and the Compound 1-treated STZ-mice as described were subjected to a glucose tolerance assay. Briefly, all of the mice were orally administered with 1 g/kg glucose and the blood glucose levels of these mice were examined at 30, 60, 90, 120 and 150 minutes. In the normal and STZ-diabetic mice, the blood glucose levels elevated 30 minutes after uptake of glucose.
Alternatively, STZ-induced diabetic mice were treated with Compound 1 orally (100 mg/kg) for 14 days. These mice were then orally administered with glucose at a dose of 2 g/kg. Their blood glucose levels were examined 15, 45, 75, and 105 minutes after glucose administration.

acetyl CoA carboxylase = assay: Acetyl CoA carboxylase (ACC) phosphorylation assay; format: cell-based; conditions: C2C12 mycrotubes, different concentrations
db/db mice [4] = assay: Glucose tolerance assay in type II diabetic mice; format: in vivo; conditions: 100 mg/kg/day orally 28 days or 30 mg/kg/day i.p. 21 or 28 days
Description: Insulin-resistant C57BL/6J-Leprdb/Lepr^db (hereafter, db/db) mice are a well-known mouse model of type II diabetes. See, e.g., Metabolism. 2000; 49:22-31). In this study, the db/db mice (Jackson Laboratory) were orally administered with Compound 1 (100 mg/kg/day) for 28 days, or administered with Compound 1 (30 mg/kg/day) via intraperitoneal (i.p.) injection for 21 days or 28 days. Two hours later, normal mice, db/db-mice, and the Compound 1-treated db/db-mice were subjected to a glucose tolerance assay as described in Example 1. FIGS. 6 to 8 show the results.

C2C12 mycrotubes [5] = assay: Glucose consumption/uptake assay; format: cell-based; conditions: [14C]2-DG, incubated with compounds for 1 hour
Description: Differentiated C2C12 mycrotubes (American Type Culture Collection: ATCC) were used to conduct a glucose consumption/uptake assay, which was performed based on the method as described in Experimental and Molecular Medicine, Vol. 39, No. 2, 222-229, 2007. Briefly, the C2C12 cells were pretreated with 0.5 μCi [^14C]2-DG for 20 min and then incubated with compounds for 1 hour to determine glucose uptake by radio activity. All values are expressed as the means±S.E. of three experiments.

[6] = test system: Glut4 (glucose transporter-4); assay: Glucose transporter-4 (Glut4) expression assay in soleus muscles; format: in vivo; conditions: STZ-induced diabetic mice, 100 mg/kg orally for 14 days, western blot
Description: GLUT4 plays an important role in insulin-induced glucose uptake to maintain normal blood glucose levels. In this study, STZ-induced diabetic mice were treated with Compound 1 orally (100 mg/kg) for 14 days; and then normal mice, STZ-induced diabetic, and the Compound 1-treated STZ-mice as described were analyzed for the Glut4 expression in soleus muscles based on the method as described in Biochem J. 1996; 313(Pt 1): 133-140). Briefly, at the end of the experimental period, animals were sacrificed by exsanguinations under diethyl ether anesthesia. Soleus muscles from each animal were excised and weighed. The soleus muscles were homogenized in lysis buffer and centrifugation, and then went to determine the GLUT4 protein expression by western blot analysis.

PEPCK mRNA = assay: Phosphoenolpyruvate carboxykinase (PEPCK) mRNA expression assay in liver; format: in vivo; conditions: STZ-induced diabetic mice, 100 mg/kg orally for 14 days, RT-PCR
Description: PEPCK is known as a key enzyme that controls gluconeogenesis in the liver. In this study, STZ-induced diabetic mice were treated with Compound 1 orally (100 mg/kg) for 14 days, and then normal mice, STZ-induced diabetic, and the Compound 1-treated STZ-mice described above were analyzed for the PEPCK mRNA expression in liver based on the method as described in Bulletin of Experimental Biology and Medicine 1979; 87: 568-571. Briefly, at the end of the experimental period, animals were sacrificed by exsanguinations under diethyl ether anesthesia. Livers from each animal were excised and weighed. The liver homogenates were prepared to determine the PEPCK mRNA expression by RT-PCR analysis.

[7] = test system: AMP-activated protein kinase (AMPK); assay: AMPK phosphorylation assay; format: cell-based; conditions: C2C12 myotubes, 0, 1, 3, 10 and 30 μM, 37° C., 1 hour
Description: In this study, differentiated C2C12 mycrotubes (American Type Culture Collection: ATCC) were used to conduct an AMPK phosphorylation assay, which was performed based on the method as described in Experimental and Molecular Medicine, Vol. 39, No. 2, 222-229, 2007. Briefly, the cells were cultured as in Example 1 and incubated with different concentrations of Compound 1 (0, 1, 3, 10 and 30 μM) at 37° C. for 1 hour and then cells were lysed. The cell lysate were immunodetected with phosphor-AMPK specific antibody. […] AMPK activator AICAR (5-amino-4-carboxamide imidazole riboside 5′-phosphate, 1 mM) was used as a positive control.

C2C12 mycrotubes [8] = assay: Insulin sensitivity assay (glucose uptake in presence of insulin); format: cell-based; conditions: in the presence of insulin 100 nM
Description: Differentiated C2C12 mycrotubes (American Type Culture Collection: ATCC) were used to conduct an insulin sensitivity assay, which was performed based on the method as described in Experimental and Molecular Medicine, Vol. 39, No. 2, 222-229, 2007. Briefly, the cells were incubated with different concentrations of Compound 1 in the presence of insulin 100 nM, and then the glucose uptake was measured. AMPK activator AICAR (5-amino-4-carboxamide imidazole riboside 5′-phosphate, […]) was used as a positive control.

[9] = test system: High fat-diet fed (HFD) mice; assay: Blood lipid/cholesterol assay in high fat-diet fed mice; format: in vivo; conditions: 100 mg/kg orally for 28 days
Description: High fat-diet fed (HFD) mice as a type 2 diabetic model were prepared based on the method as previously described in Diabetes 53 (Suppl. 3):S215-S219, 2004). In this study, mice were fed with a high-fat diet (TestDiet, Richmond, Ind., USA; fat content 60% kcal) for 8 weeks to induce type 2 diabetes. The HFD mice were treated with Compound 1 orally (100 mg/kg) for 28 days; and then normal mice, HFD mice, and the Compound 1-treated HFD mice were analyzed for the levels of serum lipids, including total cholesterol, triglyceride, high-density lipoprotein (HDL)-cholesterol, and low-density lipoprotein (LDL)-cholesterol by ELISA kits.

[10] = STZ-induced diabetic mice, 100 mg/kg orally for 14 days, glucose 2 g/kg orally

Compound: Cc1cc2c(c(C)c1CCO)C(=O)C(C)(CO)C2 (stereo not shown) [Compound 1, 6-(2-Hydroxy-ethyl)-2-hydroxymethyl-2,5,7-trimethyl-indan-1-one]
- HOMA-IR levels (db/db mice [1]): significantly reduced the HOMA-IR levels
- HbA1C levels (db/db mice [2]): significantly reduced the HbA1C levels
- blood glucose levels at 30 minute after glucose uptake ([3]; STZ-diabetic mice, 50 mg/kg orally, 2 hours before 1 g/kg oral glucose, 30 min): increased only slightly
- blood glucose levels 60 minutes after glucose uptake ([3]; STZ-diabetic mice, 50 mg/kg orally, 2 hours before 1 g/kg oral glucose, 60 min): significantly lowered
- blood glucose levels in STZ-induced diabetic mice (glucose tolerance) [3, 10]: significantly lowered blood glucose levels
- blood glucose levels 45 minutes after glucose administration ([3]; STZ-induced diabetic mice, 100 mg/kg orally for 14 days, glucose 2 g/kg orally, 45 min): decreased significantly
- phosphorylation of acetyl CoA carboxylase at Ser79 (acetyl CoA carboxylase): increased phosphorylation
- glucose intolerance in db/db-mice (db/db mice [4]): significantly improved the glucose intolerance
- glucose consumption/uptake (C2C12 mycrotubes [5]): significantly promote glucose consumption/uptake
- redistribution of Glut4 into the cell membrane of soleus muscles [6]: significantly rescued the redistribution of Glut4
- overexpression of PEPCK mRNA in the liver (PEPCK mRNA): significantly inhibited the overexpression of PEPCK mRNA
- phosphorylation of the AMPK alpha-subunit at Thr172 [7]: increased the phosphorylation of the AMPK alpha-subunit at Thr^172 in a dose dependent manner
- insulin sensitivity (glucose uptake) (C2C12 mycrotubes [8]): significantly enhanced the insulin sensitivity
- anti-obesity effects [9]: exhibited anti-obesity effects
- serum lipids ([9]; total cholesterol, triglyceride, HDL- and LDL-cholesterol by ELISA): significantly reduced serum lipids

Compound: Cc1cc2c(c(C)c1CCO)C(=O)C(C)C2O (stereo not shown) [Compound 4]
- phosphorylation of the AMPK alpha-subunit at Thr172 [7]: the same effect

Compound: Cc1cc2c(c(C)c1CCO)C(=O)C(C)(C)C2O (stereo not shown) [Compound 7]
- HOMA-IR levels (db/db mice [1]): the same effect
- blood glucose levels in STZ-induced diabetic mice (glucose tolerance) [3, 10]: the same effect
- phosphorylation of the AMPK alpha-subunit at Thr172 [7]: the same effect
- insulin sensitivity (glucose uptake) (C2C12 mycrotubes [8]): the same effect

Compound: Cc1cc2c(c(C)c1CCOC1OC(CO)C(O)C(O)C1O)C(=O)C(C)(C)C2 (stereo not shown) [Compound 52]
- phosphorylation of the AMPK alpha-subunit at Thr172 [7]: the same effect

Compound: Cc1cc2c(c(C)c1CCO)C(=O)C(C)(C)C2OC1OC(CO)C(O)C(O)C1O (stereo not shown) [Compound 73]
- HOMA-IR levels (db/db mice [1]): the same effect
- blood glucose levels in STZ-induced diabetic mice (glucose tolerance) [3, 10]: the same effect
- phosphorylation of the AMPK alpha-subunit at Thr172 [7]: the same effect
- insulin sensitivity (glucose uptake) (C2C12 mycrotubes [8]): the same effect
